From the NIST ThermoML archive (doi:10.1021/je049776w)
± gives the expanded uncertainty stated by the source.

Assays:
[1] = 101.3 kPa, Liquid
[2] = xn = mol fraction of the nth substance listed; details: 101.3 kPa, Liquid

Cc1ccc(C)cc1 [1,4-dimethylbenzene]
[1]
Details	mass density [kg/m3]	viscosity [mPa·s]
298.15 K	856.7 ± 0.7	0.6162 ± 0.017
303.15 K	852.35 ± 0.72	0.5715 ± 0.015
313.15 K	843.64 ± 0.74	0.508 ± 0.014
323.15 K	834.9 ± 0.77	0.4599 ± 0.013
333.15 K	826.09 ± 0.8	0.4298 ± 0.013
343.15 K	817.17 ± 0.83	0.3783 ± 0.012
353.15 K	808.22 ± 0.85	0.3382 ± 0.011

Cc1ccc(C)cc1 [1,4-dimethylbenzene] + C1CCCCC1
[2]
Details	mass density, 298.15 K [kg/m3]	mass density, 303.15 K [kg/m3]	mass density, 313.15 K [kg/m3]	mass density, 323.15 K [kg/m3]	mass density, 333.15 K [kg/m3]	viscosity, 298.15 K [mPa·s]	viscosity, 303.15 K [mPa·s]	viscosity, 313.15 K [mPa·s]	viscosity, 323.15 K [mPa·s]	viscosity, 333.15 K [mPa·s]
x1 = 0.0809	779.58 ± 0.94	774.92 ± 0.95	765.5 ± 0.98	755.99 ± 1	746.36 ± 1	0.8232 ± 0.021	0.7475 ± 0.019	0.6401 ± 0.017	0.5594 ± 0.015	0.4874 ± 0.014
x1 = 0.1655	786.02 ± 0.92	781.39 ± 0.93	772.07 ± 0.96	762.67 ± 0.99	753.14 ± 1	0.757 ± 0.02	0.6992 ± 0.018	0.5981 ± 0.016	0.526 ± 0.015	0.4646 ± 0.013
x1 = 0.2537	792.96 ± 0.9	788.36 ± 0.91	779.14 ± 0.94	769.83 ± 0.97	760.42 ± 1	0.7177 ± 0.019	0.6524 ± 0.017	0.5739 ± 0.016	0.5037 ± 0.014	0.452 ± 0.013
x1 = 0.3457	800.58 ± 0.88	796.02 ± 0.89	786.88 ± 0.92	777.65 ± 0.95	768.33 ± 0.98	0.6773 ± 0.018	0.6311 ± 0.017	0.5481 ± 0.015	0.4861 ± 0.014	0.4338 ± 0.013
x1 = 0.4422	808.68 ± 0.85	804.15 ± 0.86	795.1 ± 0.89	785.98 ± 0.92	776.74 ± 0.95	0.6575 ± 0.017	0.6059 ± 0.016	0.5313 ± 0.015	0.4722 ± 0.014	0.423 ± 0.013
x1 = 0.5431	817.38 ± 0.82	812.89 ± 0.84	803.91 ± 0.87	794.86 ± 0.89	785.72 ± 0.92	0.6326 ± 0.017	0.5868 ± 0.016	0.5185 ± 0.014	0.4638 ± 0.013	0.4186 ± 0.013
x1 = 0.6491	826.54 ± 0.8	822.09 ± 0.81	813.16 ± 0.84	804.19 ± 0.86	795.14 ± 0.89	0.6219 ± 0.017	0.5787 ± 0.016	0.5108 ± 0.014	0.458 ± 0.013	0.4131 ± 0.013
x1 = 0.7603	836.16 ± 0.77	831.71 ± 0.78	822.86 ± 0.81	813.98 ± 0.83	805 ± 0.86	0.6175 ± 0.017	0.5726 ± 0.015	0.511 ± 0.014	0.4569 ± 0.013	0.4109 ± 0.013
x1 = 0.8771	846.17 ± 0.73	841.79 ± 0.75	833 ± 0.78	824.18 ± 0.8	815.3 ± 0.83	0.6139 ± 0.017	0.5701 ± 0.015	0.5052 ± 0.014	0.4567 ± 0.013	0.4124 ± 0.013
x1 = 1	856.7 ± 0.7	852.35 ± 0.72	843.64 ± 0.74	834.9 ± 0.77	826.09 ± 0.8	0.6162 ± 0.017	0.5715 ± 0.015	0.508 ± 0.014	0.4599 ± 0.013	0.4298 ± 0.013

CN1CCCC1=O [N-methylpyrrolidone]
[1]
Details	mass density [kg/m3]	viscosity [mPa·s]
303.15 K	1023.47 ± 2.7	1.554 ± 0.053
313.15 K	1014.55 ± 2.7	1.332 ± 0.046
323.15 K	1005.66 ± 2.7	1.16 ± 0.041
333.15 K	996.71 ± 2.6	1.022 ± 0.036
343.15 K	987.75 ± 2.6	0.9084 ± 0.032
353.15 K	978.76 ± 2.6	0.8127 ± 0.029

CN1CCCC1=O [N-methylpyrrolidone] + Cc1ccc(C)cc1
[2], x2 = 0
Details	mass density [kg/m3]	viscosity [mPa·s]
303.15 K	1023.47 ± 2.7	1.554 ± 0.053
313.15 K	1014.55 ± 2.7	1.332 ± 0.046
323.15 K	1005.66 ± 2.7	1.16 ± 0.041
333.15 K	996.71 ± 2.6	1.022 ± 0.036
343.15 K	987.75 ± 2.6	0.9084 ± 0.032
353.15 K	978.76 ± 2.6	0.8127 ± 0.029

C1CCCCC1 [cyclohexane]
[1]
Details	mass density [kg/m3]	viscosity [mPa·s]
298.15 K	773.82 ± 0.96	0.9027 ± 0.023
303.15 K	769.1 ± 0.97	0.8205 ± 0.021
313.15 K	759.61 ± 1	0.6963 ± 0.018
323.15 K	749.98 ± 1	0.5984 ± 0.016
333.15 K	740.23 ± 1.1	0.5195 ± 0.015

C1CCCCC1 [cyclohexane] + Cc1ccc(C)cc1
[2], x2 = 0
Details	mass density [kg/m3]	viscosity [mPa·s]
298.15 K	773.82 ± 0.96	0.9027 ± 0.023
303.15 K	769.1 ± 0.97	0.8205 ± 0.021
313.15 K	759.61 ± 1	0.6963 ± 0.018
323.15 K	749.98 ± 1	0.5984 ± 0.016
333.15 K	740.23 ± 1.1	0.5195 ± 0.015

CCCCCCC [heptane]
[1]
Details	mass density [kg/m3]	viscosity [mPa·s]
298.15 K	679.9 ± 1.3	0.4009 ± 0.012
303.15 K	675.65 ± 1.3	0.375 ± 0.012
313.15 K	667.08 ± 1.3	0.3373 ± 0.011
323.15 K	658.37 ± 1.3	0.3074 ± 0.011
333.15 K	649.53 ± 1.4	0.2793 ± 0.01
343.15 K	640.47 ± 1.4	0.2541 ± 0.0099

CCCCCCC [heptane] + Cc1ccc(C)cc1
[2], x2 = 0
Details	mass density [kg/m3]	viscosity [mPa·s]
298.15 K	679.9 ± 1.3	0.4009 ± 0.012
303.15 K	675.65 ± 1.3	0.375 ± 0.012
313.15 K	667.08 ± 1.3	0.3373 ± 0.011
323.15 K	658.37 ± 1.3	0.3074 ± 0.011
333.15 K	649.53 ± 1.4	0.2793 ± 0.01
343.15 K	640.47 ± 1.4	0.2541 ± 0.0099

CCCCCCCC [octane]
[1]
Details	mass density [kg/m3]	viscosity [mPa·s]
298.15 K	699.9 ± 1.2	0.5206 ± 0.015
303.15 K	695.72 ± 1.2	0.4837 ± 0.014
313.15 K	687.5 ± 1.2	0.4306 ± 0.013
323.15 K	679.37 ± 1.3	0.3864 ± 0.012
333.15 K	671.02 ± 1.3	0.3495 ± 0.011
343.15 K	662.54 ± 1.3	0.3139 ± 0.011
353.15 K	653.8 ± 1.4	0.284 ± 0.01

CCCCCCCC [octane] + Cc1ccc(C)cc1
[2], x2 = 0
Details	mass density [kg/m3]	viscosity [mPa·s]
298.15 K	699.9 ± 1.2	0.5206 ± 0.015
303.15 K	695.72 ± 1.2	0.4837 ± 0.014
313.15 K	687.5 ± 1.2	0.4306 ± 0.013
323.15 K	679.37 ± 1.3	0.3864 ± 0.012
333.15 K	671.02 ± 1.3	0.3495 ± 0.011
343.15 K	662.54 ± 1.3	0.3139 ± 0.011
353.15 K	653.8 ± 1.4	0.284 ± 0.01
